The supplement of paper PMC10307832

What was measured:
Assay in all cases: relative viability (nuclei count vs DMSO), 5 days (fraction); higher = more cells survive
ABC-1 = test system: ABC-1
Outline: (§1)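 Relative viability equals treated-well nuclei counts divided by vehicle-well nuclei counts. Counts came from 4× images of lung cancer cell lines grown in 1536-well plates for 5 days after pin-tool dosing on the day after seeding. Dosing used one drug alone or a fixed anchor-drug dose plus five library-drug doses (not always all listed) in √10 steps, and values are medians of duplicate plates.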

COR-L23 = test system: COR-L23
Outline: as §1

ChaGo-K-1 = test system: ChaGo-K-1
Outline: as §1

NCI-H1437 = test system: NCI-H1437
Outline: as §1

NCI-H1648 = test system: NCI-H1648
Outline: as §1

NCI-H1651 = test system: NCI-H1651
Outline: as §1

SK-MES-1 = test system: SK-MES-1
Outline: as §1

SW 1573 = test system: SW 1573
Outline: as §1

A549 = test system: A549
Outline: as §1

## O=c1cc(N2CCOCC2)oc2c(-c3cccc4c3sc3ccccc34)cccc12 + CC(=O)c1c(C)c2cnc(Nc3ccc(N4CCNCC4)cn3)nc2n(C2CCCC2)c1=O [Palbociclib] (partner 0.5 µM)
ABC-1; first compound 0.01 µM
  relative viability: 0.644
ABC-1; first compound 0.03162 µM
  relative viability: 0.797
ABC-1; first compound 0.1 µM
  relative viability: 0.699
ABC-1; first compound 0.3162 µM
  relative viability: 0.619
ABC-1; first compound 1 µM
  relative viability: 0.578
COR-L23; first compound 0.01 µM
  relative viability: 0.289
COR-L23; first compound 0.03162 µM
  relative viability: 0.303
COR-L23; first compound 0.1 µM
  relative viability: 0.317
COR-L23; first compound 0.3162 µM
  relative viability: 0.301
COR-L23; first compound 1 µM
  relative viability: 0.316
ChaGo-K-1; first compound 0.01 µM
  relative viability: 0.884
ChaGo-K-1; first compound 0.03162 µM
  relative viability: 0.91
ChaGo-K-1; first compound 0.1 µM
  relative viability: 0.964
ChaGo-K-1; first compound 0.3162 µM
  relative viability: 0.947
ChaGo-K-1; first compound 1 µM
  relative viability: 0.954
NCI-H1437; first compound 0.01 µM
  relative viability: 0.3
NCI-H1437; first compound 0.03162 µM
  relative viability: 0.312
NCI-H1437; first compound 0.1 µM
  relative viability: 0.282
NCI-H1437; first compound 0.3162 µM
  relative viability: 0.31
NCI-H1437; first compound 1 µM
  relative viability: 0.281
NCI-H1648; first compound 0.03162 µM
  relative viability: 0.261
NCI-H1648; first compound 0.1 µM
  relative viability: 0.273
NCI-H1648; first compound 0.3162 µM
  relative viability: 0.284
NCI-H1648; first compound 1 µM
  relative viability: 0.292
NCI-H1651; first compound 0.01 µM
  relative viability: 0.528
NCI-H1651; first compound 0.03162 µM
  relative viability: 0.486
NCI-H1651; first compound 0.1 µM
  relative viability: 0.555
NCI-H1651; first compound 0.3162 µM
  relative viability: 0.555
NCI-H1651; first compound 1 µM
  relative viability: 0.513
SK-MES-1; first compound 0.01 µM
  relative viability: 0.274
SK-MES-1; first compound 0.03162 µM
  relative viability: 0.343
SK-MES-1; first compound 0.1 µM
  relative viability: 0.359
SK-MES-1; first compound 0.3162 µM
  relative viability: 0.341
SK-MES-1; first compound 1 µM
  relative viability: 0.295
SW 1573; first compound 0.01 µM
  relative viability: 0.349
SW 1573; first compound 0.03162 µM
  relative viability: 0.436
SW 1573; first compound 0.1 µM
  relative viability: 0.408
SW 1573; first compound 0.3162 µM
  relative viability: 0.349
SW 1573; first compound 1 µM
  relative viability: 0.394

## COc1nc(C)cnc1NS(=O)(=O)c1cccnc1-c1ccc(-c2nnco2)cc1 [Zibotentan] + Nc1ncn([C@H]2C[C@H](O)[C@@H](CO)O2)c(=O)n1 [Decitabine] (partner 2 µM)
A549; first compound 0.08 µM
  relative viability: 0.232
A549; first compound 0.253 µM
  relative viability: 0.266
A549; first compound 0.8 µM
  relative viability: 0.305
A549; first compound 2.53 µM
  relative viability: 0.285
ABC-1; first compound 0.08 µM
  relative viability: 0.829
ABC-1; first compound 0.253 µM
  relative viability: 1.12
ABC-1; first compound 0.8 µM
  relative viability: 0.939
ABC-1; first compound 2.53 µM
  relative viability: 1.06
COR-L23; first compound 0.08 µM
  relative viability: 0.506
COR-L23; first compound 0.253 µM
  relative viability: 0.402
COR-L23; first compound 0.8 µM
  relative viability: 0.573
COR-L23; first compound 2.53 µM
  relative viability: 0.455
ChaGo-K-1; first compound 0.08 µM
  relative viability: 0.512
ChaGo-K-1; first compound 0.253 µM
  relative viability: 0.493
ChaGo-K-1; first compound 0.8 µM
  relative viability: 0.508
ChaGo-K-1; first compound 2.53 µM
  relative viability: 0.55
NCI-H1437; first compound 0.08 µM
  relative viability: 0.534
NCI-H1437; first compound 0.253 µM
  relative viability: 0.545
NCI-H1437; first compound 0.8 µM
  relative viability: 0.564
NCI-H1437; first compound 2.53 µM
  relative viability: 0.556
NCI-H1648; first compound 0.08 µM
  relative viability: 0.544
NCI-H1648; first compound 0.253 µM
  relative viability: 0.464
NCI-H1648; first compound 0.8 µM
  relative viability: 0.519
NCI-H1648; first compound 2.53 µM
  relative viability: 0.461
NCI-H1651; first compound 0.08 µM
  relative viability: 0.657
NCI-H1651; first compound 0.253 µM
  relative viability: 0.607
NCI-H1651; first compound 0.8 µM
  relative viability: 0.567
NCI-H1651; first compound 2.53 µM
  relative viability: 0.516
SK-MES-1; first compound 0.08 µM
  relative viability: 0.389
SK-MES-1; first compound 0.253 µM
  relative viability: 0.285
SK-MES-1; first compound 0.8 µM
  relative viability: 0.447
SK-MES-1; first compound 2.53 µM
  relative viability: 0.365
SW 1573; first compound 0.08 µM
  relative viability: 0.611
SW 1573; first compound 0.8 µM
  relative viability: 0.702
SW 1573; first compound 2.53 µM
  relative viability: 0.613

## COc1nc(C)cnc1NS(=O)(=O)c1cccnc1-c1ccc(-c2nnco2)cc1 [Zibotentan] + CC(=O)c1c(C)c2cnc(Nc3ccc(N4CCNCC4)cn3)nc2n(C2CCCC2)c1=O [Palbociclib] (partner 0.5 µM)
ABC-1; first compound 0.08 µM
  relative viability: 0.603
ABC-1; first compound 0.253 µM
  relative viability: 0.475
ABC-1; first compound 0.8 µM
  relative viability: 0.664
ABC-1; first compound 2.53 µM
  relative viability: 0.676
COR-L23; first compound 0.08 µM
  relative viability: 0.338
COR-L23; first compound 0.253 µM
  relative viability: 0.225
COR-L23; first compound 0.8 µM
  relative viability: 0.366
COR-L23; first compound 2.53 µM
  relative viability: 0.322
ChaGo-K-1; first compound 0.08 µM
  relative viability: 0.965
ChaGo-K-1; first compound 0.253 µM
  relative viability: 0.945
ChaGo-K-1; first compound 0.8 µM
  relative viability: 0.947
ChaGo-K-1; first compound 2.53 µM
  relative viability: 0.972
NCI-H1437; first compound 0.08 µM
  relative viability: 0.327
NCI-H1437; first compound 0.253 µM
  relative viability: 0.296
NCI-H1437; first compound 0.8 µM
  relative viability: 0.288
NCI-H1437; first compound 2.53 µM
  relative viability: 0.304
NCI-H1648; first compound 0.08 µM
  relative viability: 0.274
NCI-H1648; first compound 0.253 µM
  relative viability: 0.276
NCI-H1648; first compound 0.8 µM
  relative viability: 0.312
NCI-H1648; first compound 2.53 µM
  relative viability: 0.259
NCI-H1651; first compound 0.08 µM
  relative viability: 0.521
NCI-H1651; first compound 0.253 µM
  relative viability: 0.522
NCI-H1651; first compound 0.8 µM
  relative viability: 0.48
NCI-H1651; first compound 2.53 µM
  relative viability: 0.492
SK-MES-1; first compound 0.08 µM
  relative viability: 0.309
SK-MES-1; first compound 0.253 µM
  relative viability: 0.284
SK-MES-1; first compound 0.8 µM
  relative viability: 0.35
SK-MES-1; first compound 2.53 µM
  relative viability: 0.362
SW 1573; first compound 0.08 µM
  relative viability: 0.421
SW 1573; first compound 0.8 µM
  relative viability: 0.385
SW 1573; first compound 2.53 µM
  relative viability: 0.363

## COc1nc(C)cnc1NS(=O)(=O)c1cccnc1-c1ccc(-c2nnco2)cc1 [Zibotentan] + Nc1nc2[nH]cc(CCc3ccc(C(=O)N[C@@H](CCC(=O)O)C(=O)O)cc3)c2c(=O)[nH]1 [Pemetrexed] (partner 0.2 µM)
COR-L23; first compound 0.08 µM
  relative viability: 0.214
COR-L23; first compound 0.253 µM
  relative viability: 0.185
COR-L23; first compound 0.8 µM
  relative viability: 0.207
COR-L23; first compound 2.53 µM
  relative viability: 0.204
ChaGo-K-1; first compound 0.08 µM
  relative viability: 0.261
ChaGo-K-1; first compound 0.253 µM
  relative viability: 0.258
ChaGo-K-1; first compound 0.8 µM
  relative viability: 0.275
ChaGo-K-1; first compound 2.53 µM
  relative viability: 0.351
NCI-H1437; first compound 0.08 µM
  relative viability: 0.35
NCI-H1437; first compound 0.253 µM
  relative viability: 0.306
NCI-H1437; first compound 0.8 µM
  relative viability: 0.281
NCI-H1437; first compound 2.53 µM
  relative viability: 0.32
NCI-H1648; first compound 0.08 µM
  relative viability: 0.791
NCI-H1648; first compound 0.253 µM
  relative viability: 0.686
NCI-H1648; first compound 0.8 µM
  relative viability: 0.532
NCI-H1648; first compound 2.53 µM
  relative viability: 0.635
NCI-H1651; first compound 0.08 µM
  relative viability: 0.594
NCI-H1651; first compound 0.253 µM
  relative viability: 0.581
NCI-H1651; first compound 0.8 µM
  relative viability: 0.578
NCI-H1651; first compound 2.53 µM
  relative viability: 0.539
SK-MES-1; first compound 0.08 µM
  relative viability: 0.953
SK-MES-1; first compound 0.253 µM
  relative viability: 0.815
SK-MES-1; first compound 0.8 µM
  relative viability: 0.827
SK-MES-1; first compound 2.53 µM
  relative viability: 1.03
SW 1573; first compound 0.08 µM
  relative viability: 0.872
SW 1573; first compound 0.8 µM
  relative viability: 0.783
SW 1573; first compound 2.53 µM
  relative viability: 0.823

## O=c1cc(-c2cccc3c2Sc2ccccc2S3)oc(N2CCOCC2)c1 + Nc1ncn([C@H]2C[C@H](O)[C@@H](CO)O2)c(=O)n1 [Decitabine] (partner 2 µM)
A549; first compound 0.08 µM
  relative viability: 0.259
A549; first compound 0.253 µM
  relative viability: 0.325
A549; first compound 0.8 µM
  relative viability: 0.263
A549; first compound 2.53 µM
  relative viability: 0.106
A549; first compound 8 µM
  relative viability: 0.334
ABC-1; first compound 0.08 µM
  relative viability: 0.993
ABC-1; first compound 0.253 µM
  relative viability: 1.16
ABC-1; first compound 0.8 µM
  relative viability: 1.33
ABC-1; first compound 2.53 µM
  relative viability: 1.17
ABC-1; first compound 8 µM
  relative viability: 1.19
COR-L23; first compound 0.08 µM
  relative viability: 0.429
COR-L23; first compound 0.253 µM
  relative viability: 0.513
COR-L23; first compound 0.8 µM
  relative viability: 0.386
COR-L23; first compound 2.53 µM
  relative viability: 0.508
COR-L23; first compound 8 µM
  relative viability: 0.588
ChaGo-K-1; first compound 0.08 µM
  relative viability: 0.542
ChaGo-K-1; first compound 0.253 µM
  relative viability: 0.555
ChaGo-K-1; first compound 0.8 µM
  relative viability: 0.541
ChaGo-K-1; first compound 2.53 µM
  relative viability: 0.51
ChaGo-K-1; first compound 8 µM
  relative viability: 0.555
NCI-H1437; first compound 0.08 µM
  relative viability: 0.573
NCI-H1437; first compound 0.253 µM
  relative viability: 0.708
NCI-H1437; first compound 0.8 µM
  relative viability: 0.628
NCI-H1437; first compound 2.53 µM
  relative viability: 0.524
NCI-H1437; first compound 8 µM
  relative viability: 0.578
NCI-H1648; first compound 0.253 µM
  relative viability: 0.501
NCI-H1648; first compound 0.8 µM
  relative viability: 0.553
NCI-H1648; first compound 8 µM
  relative viability: 0.54
NCI-H1651; first compound 0.08 µM
  relative viability: 0.575
NCI-H1651; first compound 0.253 µM
  relative viability: 0.766
NCI-H1651; first compound 0.8 µM
  relative viability: 0.617
NCI-H1651; first compound 2.53 µM
  relative viability: 0.555
NCI-H1651; first compound 8 µM
  relative viability: 0.628
SK-MES-1; first compound 0.08 µM
  relative viability: 0.337
SK-MES-1; first compound 0.253 µM
  relative viability: 0.406
SK-MES-1; first compound 0.8 µM
  relative viability: 0.352
SK-MES-1; first compound 2.53 µM
  relative viability: 0.458
SK-MES-1; first compound 8 µM
  relative viability: 0.375
SW 1573; first compound 0.08 µM
  relative viability: 0.561
SW 1573; first compound 0.253 µM
  relative viability: 0.575
SW 1573; first compound 0.8 µM
  relative viability: 0.598
SW 1573; first compound 2.53 µM
  relative viability: 0.448
SW 1573; first compound 8 µM
  relative viability: 0.596
